# Columns and labels:
# Rev-erbα [1] = assay: Rev-erbα protein expression in HSCs under pro- and anti-fibrogenic factors (Western blot); format: cell-based, rat
# Experimental: (§1) Primary rat HSCs were isolated by pronase/collagenase perfusion digestion followed by density gradient centrifugation with Optiprep. Media was replaced every other day to replenish Rev-erbα modulator SR6452, which was present at a 10 μM concentration. Cells were treated with MDIR mixture (IBMX, dexamethasone, insulin, rosiglitazone), TGFβ, or DMSO (vehicle). Some experiments were performed with the human HSC cell line, LX-2.
# FIG. 2B show results from primary HSCs that were treated with pro-fibrogenic factor TGFβ (5 ng/ml) or myosin inhibitors blebbistatin (Bleb) or BDM (2,3-Butanedione monoxime) for 48 hrs. Cells were harvested for protein and Western blots performed to detect Rev-erbα.
# primary rat HSCs [2] = assay: Adipogenesis in culture-activated primary HSCs (Oil Red O staining, qRT-PCR of adipogenic factors); format: cell-based
# Experimental: (§2) A series of experiments were conducted to determine the functional role of Rev-erbα in HSC transdifferentiation. In these experiments, culture-activated primary rat HSCs and human LX-2 cells were used. To determine the effect of Rev-erbα on HSC transdifferentiation and contraction, cells were treated with a specific synthetic modulator, SR6452 (10 μM). mRNA and protein expression were determined by qRT-PCR and Western blot, respectively. Changes in cellular morphology, Rev-erb expression/localization and αSMA expression were observed by confocal microscopy. Additionally, cell contractility was assessed.
# as §1
# (§3) mRNA expression was normalized to 18S rRNA.
# FIGS. 3A-B illustrates that modulation of Rev-erbα activity can regulate adipogenesis. Primary HSCs were culture-activated for 5 days (A) or 15 days (B). Cells were treated with vehicle (DMSO, open bar), or the Rev-erbα modulator SR6452 ([…], purple bar) for the days indicated. The medium was changed every 48 hrs. FIG. 3A provides a chart summarizing the amount of PPARγ, SREBP1, and Lep mRNA on day 5.
# primary rat HSCs [3] = assay: Myofibroblast marker expression and morphology (qRT-PCR, αSMA immunocytochemistry); format: cell-based
# Experimental: as §2, §3
# Prior to transfection, culture-activated HSCs (for varying days of activation) were seeded onto glass coverslips. Cells were fixed with 4% paraformaldehyde and stained with anti-αSMA antibody, a marker of HSC activation. Cells were imaged using a Zeiss confocal microscope. The fluorescence indicates Rev-erb or αSMA expression.
# (§4) FIGS. 5A-D illustrate that Rev-erbα modulator SR6452 can regulate myofibroblast marker expression and HSC contraction. Primary rat HSCs were cultured from quiescence (day Q) to day 5 (FIG. 5A) or from day 9 to day 12 (FIG. 5B) and treated with Rev-erbα modulator SR6452. qRT-PCR was performed for myofibroblast gene expression. Samples were normalized with 18S rRNA. […] HSCs (day 5) were embedded in a collagen gel and treated as indicated for 48 hrs. Gels were then released from plastic surface and contraction monitored after 72 hrs. Materials used were DMSO (vehicle control), SR6452, Rev-erb modulator; and BDM (2,3-Butanedione monoxime), myosin inhibitor.
# primary rat HSCs [4] = assay: ECM gene expression by qRT-PCR in primary HSCs; format: cell-based; conditions: SR6452 10 μM, day Q to day 5 or day 9 to day 12
# Experimental: as §2, §1, §3
# FIGS. 4A-B illustrate that the Rev-erbα modulator SR6452 can suppress/decrease ECM gene expression. Primary rat HSCs were cultured from quiescence (day Q) to day 5 (FIG. 4A) or from day 9 to day 12 (FIG. 4B) and treated with Rev-erbα modulator SR6452. qRT-PCR was performed to determine ECM gene expression. DMSO was used as the vehicle control, while SR6452 was used as the Rev-erbα modulator.
# primary rat HSCs [5] = assay: Cell contraction assay (collagen gel); format: cell-based; conditions: HSCs embedded in collagen gel, treated 48 hrs, contraction monitored after 72 hrs
# Experimental: Primary rat HSCs (day 9, 2-5×10^6 cells/ml) were embedded in a collagen lattice per manufacturer's instructions. Cells were treated with synthetic Rev-erbα ligand SR6452. Collagen gel size change was imaged using a BioSpectrum Imaging System.
# as §4
# Rev-erbα [6] = molecular target: T1, Rev-erbα (Homo sapiens, UniProt P20393); conditions: cited from earlier work
# T1 sequence (P20393 1-614): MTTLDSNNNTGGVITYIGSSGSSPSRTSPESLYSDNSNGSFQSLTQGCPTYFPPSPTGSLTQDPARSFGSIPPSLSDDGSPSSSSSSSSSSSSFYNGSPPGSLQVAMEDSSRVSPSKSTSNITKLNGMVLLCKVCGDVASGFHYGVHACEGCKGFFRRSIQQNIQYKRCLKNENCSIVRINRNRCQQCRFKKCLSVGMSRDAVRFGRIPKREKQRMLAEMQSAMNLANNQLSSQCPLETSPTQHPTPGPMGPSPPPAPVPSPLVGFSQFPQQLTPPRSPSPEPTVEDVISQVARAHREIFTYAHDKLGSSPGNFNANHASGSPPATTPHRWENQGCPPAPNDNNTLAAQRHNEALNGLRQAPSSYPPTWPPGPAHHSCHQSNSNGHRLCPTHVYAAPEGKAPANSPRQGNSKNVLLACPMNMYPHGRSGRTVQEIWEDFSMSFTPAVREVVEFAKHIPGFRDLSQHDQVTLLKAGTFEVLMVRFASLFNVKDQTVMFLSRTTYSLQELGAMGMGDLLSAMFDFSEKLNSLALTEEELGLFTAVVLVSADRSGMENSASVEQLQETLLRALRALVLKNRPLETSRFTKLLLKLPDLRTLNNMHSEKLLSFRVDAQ
# LX-2 cells = assay: Response of LX-2 cells to Rev-erb agonist, with or without Rev-erbα overexpression; format: cell-based, human
# Experimental: Primary rat HSCs were isolated via standard pronase-collagenase digestion and subsequent density gradient centrifugation. LX-2 cells were treated with adipogenic mixture (MDI), 5 ng/ml of recombinant transforming growth factor-beta (TGFβ), or plated on Matrigel™ (growth condition which promotes HSC quiescence) for various time points. Gene expression was determined by RealTime PCR and Western blot. Immunocytochemistry followed by confocal microscopy was used to determine sub-cellular localization. A Rev-erb DNA binding domain (DBD) mutant was produced by standard molecular cloning. LX-2 cells were transfected with expression vectors or controls using Fugene®HD.
# [7] = tested on: CCl4-induced liver fibrosis; assay: CCl4-induced liver fibrosis mouse model (herovici histology, qRT-PCR of whole liver); format: in vivo
# Experimental: Male C57BL/6 mice (age 9 weeks) were injected intraperitoneally with carbon tetrachloride (CCl4) in sterile olive oil (1 μl CCl4/g body weight) twice a week for 5 weeks. Three weeks after initiation of CCl4 treatment, SR9009 (EMD Millipore, dissolved in DMSO) was administered 5 times a week at a dose of 0.1 mg/g body weight for two weeks. Mice were sacrificed 72 hours after the last dose of SR9009 and livers were harvested for further analysis. For histology studies, livers of the right and left lobes were fixed in 10% formalin, embedded in paraffin, sectioned, and stained with herovici to detect collagen deposition. For gene expression studies, total RNA was extracted from whole liver homogenates, and qRT-PCR performed to detect various markers, including αSMA, Col1α1, Col1α2, tenascin C, and connective tissue growth factor.
# [8] = SR6452 10 μM, mRNA by qRT-PCR, day 5
# [9] = qRT-PCR whole liver, CCl4 + SR9009 0.1 mg/g
molecule,measurement,setting,value
TGFβ,cytoplasmic Rev-erbα,Rev-erbα [1]; TGFβ treatment,stabilized
same,Rev-erbα protein expression,"Rev-erbα [1]; Western blot, TGFβ 5 ng/ml 48 hrs, MDIR or matrigel through day 4",increased
"CC(C)(C)OC(=O)CN(Cc1ccc(Cl)cc1)Cc1ccc([N+](=O)[O-])s1 [SR6452, 1,1-Dimethylethyl-N-[(4-chlorophenyl)methyl]-N-[(5-nitro-2-thienyl)methyl]) glycinate]",lipid content in activated HSCs,"primary rat HSCs [2]; SR6452 10 μM, Oil Red O, day 15",increased
same,PPARγ expression,primary rat HSCs [2]; [8],up-regulated
same,SREBP1 expression,primary rat HSCs [2]; [8],up-regulated
same,HSC adipogenesis,primary rat HSCs [2]; exposure of quiescent HSCs,promoted
same,major regulatory and structural genes controlling myofibroblast contraction,"primary rat HSCs [3]; SR6452 10 μM, qRT-PCR normalized to 18S rRNA",repressive effects
same,cell morphology,"primary rat HSCs [3]; day 9 HSCs treated 72 hrs, αSMA/DAPI immunocytochemistry",slightly rounded/folded cytoplasm with disoriented actin fibers
same,effect on HSC activation,primary rat HSCs [3]; overall conclusion of Example 1,suppressive effect
same,Type I collagen expression,primary rat HSCs [4],significantly down-regulated
same,fibronectin expression,primary rat HSCs [4],significantly down-regulated
same,tenascin C expression,primary rat HSCs [4],significantly down-regulated
same,HSC contraction,primary rat HSCs [5],impeded
same,recruitment of nuclear receptor co-repressor (NCoR) peptide to Rev-erbα,Rev-erbα [6],enhances recruitment
same,EC50,Rev-erbα [6]; read-out: EC50 (synthetic Rev-erb agonist),250 nM
same,response to Rev-erb agonist,LX-2 cells; LX-2 cells overexpressing Rev-erbα,sensitive
same,response to Rev-erb agonist,LX-2 cells; LX-2 cells without Rev-erbα overexpression,non-responsive
CCOC(=O)N1CCC(CN(Cc2ccc(Cl)cc2)Cc2ccc([N+](=O)[O-])s2)C1 (stereo not shown) [SR9009],liver architecture and collagen deposition (herovici stain),"[7]; C57BL/6 mice, CCl4 5 weeks, SR9009 0.1 mg/g 5 times a week for two weeks",essentially normal liver architecture and amount of collagen deposition
same,CCl4-mediated liver fibrosis,"[7]; mice, histological and expression data",effective reverses
same,Col1α1 expression in liver,[7]; [9],down to almost normal levels
same,Col1α2 expression in liver,[7]; [9],down to almost normal levels
same,αSMA expression in liver,[7]; [9],down to almost normal levels

# Reference: patent US9750718B2, “Methods of treating hepatic fibrosis and associated diseases by regulating Rev-ERB activity” (The Charlotte-Mecklenburg Hospital Authority, priority 2012, dated 2017)
